Biological target: Helios (Homo sapiens, UniProt Q96SW2+Q9UKS7)
Assay: Helios Human T Regulatory Cells Degradation Assay
Type: cell-based
Parameters: fluorescently labelled antibodies against Helios in 1× Permeabilization buffer; endogenous in cells; host or cells: cryopreserved human T regulatory cells
Conditions: cryopreserved human T regulatory cells, incubated 20 hours, Helios-APC antibody staining, flow cytometry; read-out: hTreg Helios DC50
Method: Cryopreserved human T regulatory cells were thawed in RPMI+10% FBS+20 ng/mL IL-2. After being spun at 1200 rpm for 5 mins, the cells were resuspended in RPMI+10% FBS+20 ng/mL and rested at 37° C. with 5% CO2 for 3 hours. […] Cell cultures were incubated for 20 hours at 37° C. and 5% CO2. In order to facilitate analysis, cell cultures were spun down at 1200 rpm for 5 minutes and the supernatant was discarded using an EL406 plate washer. After washing three times with 70 μL PBS, cell pellets were resuspended in 50 μL of near IR viability staining solution (Life Technologies, Cat #L34975) and incubated for 30 minutes on ice protected from light. Cells were washed three times with 70 μL PBS+0.5% BSA using an EL406 plate washer. […] Subsequently, 30 μL of 1× Permeabilization buffer was added prior to centrifuging the cells and discarding the supernatant. Stained cells were resuspended in 30 μL of flow cytometry staining buffer (PBS+0.5% BSA) and analyzed using an Intellicyt Ique Plus flow cytometer.

Helios, sequence (Q9UKS7 whole entry): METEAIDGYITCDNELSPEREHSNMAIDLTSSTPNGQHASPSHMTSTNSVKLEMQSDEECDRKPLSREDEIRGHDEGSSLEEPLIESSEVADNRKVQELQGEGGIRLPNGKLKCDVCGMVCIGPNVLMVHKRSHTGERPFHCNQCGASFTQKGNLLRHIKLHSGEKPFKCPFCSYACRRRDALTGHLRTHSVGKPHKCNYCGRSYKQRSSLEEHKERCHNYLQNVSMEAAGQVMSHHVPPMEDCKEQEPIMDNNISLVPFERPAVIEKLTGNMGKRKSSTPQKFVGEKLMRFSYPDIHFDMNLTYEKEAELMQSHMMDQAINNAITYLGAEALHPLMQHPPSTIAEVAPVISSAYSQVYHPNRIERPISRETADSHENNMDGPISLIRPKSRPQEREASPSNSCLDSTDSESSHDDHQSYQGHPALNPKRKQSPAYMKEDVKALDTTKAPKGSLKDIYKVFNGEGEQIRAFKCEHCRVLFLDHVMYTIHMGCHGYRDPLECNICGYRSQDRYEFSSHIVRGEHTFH
Helios, sequence (Q96SW2 whole entry): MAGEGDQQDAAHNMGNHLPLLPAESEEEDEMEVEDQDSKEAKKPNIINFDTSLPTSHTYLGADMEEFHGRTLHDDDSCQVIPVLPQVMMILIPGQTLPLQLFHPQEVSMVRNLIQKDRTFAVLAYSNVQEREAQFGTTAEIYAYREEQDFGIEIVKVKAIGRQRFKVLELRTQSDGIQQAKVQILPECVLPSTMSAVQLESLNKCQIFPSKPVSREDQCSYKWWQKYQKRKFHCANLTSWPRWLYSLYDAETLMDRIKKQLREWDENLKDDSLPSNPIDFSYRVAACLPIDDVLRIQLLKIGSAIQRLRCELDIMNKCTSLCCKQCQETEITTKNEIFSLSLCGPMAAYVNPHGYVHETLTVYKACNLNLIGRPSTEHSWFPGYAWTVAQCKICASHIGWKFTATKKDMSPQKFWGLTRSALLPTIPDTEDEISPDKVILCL
Helios, sequence (Q16531 whole entry partner): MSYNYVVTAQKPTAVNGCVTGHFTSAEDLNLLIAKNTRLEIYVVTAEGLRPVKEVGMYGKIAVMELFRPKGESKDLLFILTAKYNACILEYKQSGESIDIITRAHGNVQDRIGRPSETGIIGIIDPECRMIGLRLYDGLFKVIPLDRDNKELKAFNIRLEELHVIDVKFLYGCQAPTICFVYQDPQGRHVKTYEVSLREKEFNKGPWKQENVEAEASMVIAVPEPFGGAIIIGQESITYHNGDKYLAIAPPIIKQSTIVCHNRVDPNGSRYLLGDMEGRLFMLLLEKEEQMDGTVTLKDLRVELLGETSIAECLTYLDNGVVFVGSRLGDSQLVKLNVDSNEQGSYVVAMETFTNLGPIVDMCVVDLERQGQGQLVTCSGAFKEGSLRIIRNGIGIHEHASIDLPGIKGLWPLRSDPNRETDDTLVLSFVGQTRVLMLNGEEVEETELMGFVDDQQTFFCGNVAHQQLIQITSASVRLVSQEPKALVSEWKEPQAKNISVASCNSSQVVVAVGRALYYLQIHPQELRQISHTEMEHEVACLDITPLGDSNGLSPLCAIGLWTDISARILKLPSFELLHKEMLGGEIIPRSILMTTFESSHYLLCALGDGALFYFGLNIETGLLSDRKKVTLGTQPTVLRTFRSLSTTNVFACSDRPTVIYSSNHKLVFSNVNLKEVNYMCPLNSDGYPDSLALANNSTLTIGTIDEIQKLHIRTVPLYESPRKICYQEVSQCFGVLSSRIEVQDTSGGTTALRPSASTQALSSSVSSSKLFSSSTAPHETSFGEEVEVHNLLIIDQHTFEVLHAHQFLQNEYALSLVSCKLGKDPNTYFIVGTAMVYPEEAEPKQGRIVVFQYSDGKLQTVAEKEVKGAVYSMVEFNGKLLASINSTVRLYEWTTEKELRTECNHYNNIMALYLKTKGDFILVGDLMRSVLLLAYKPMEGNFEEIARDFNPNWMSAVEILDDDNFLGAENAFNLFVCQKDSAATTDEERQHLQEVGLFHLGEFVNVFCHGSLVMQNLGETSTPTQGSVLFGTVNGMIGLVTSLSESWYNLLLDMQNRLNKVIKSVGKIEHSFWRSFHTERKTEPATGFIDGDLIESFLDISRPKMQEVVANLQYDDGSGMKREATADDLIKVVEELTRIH

| Structure (SMILES) | DC50 [nM] |
| --- | --- |
| COc1cc(CN2CC3(CCC3)C2)cc(-c2ccc3c(c2)CN(C2CCC(=O)NC2=O)C3=O)n1 (stereo not shown) [Example 174, 3-(5-(4-((2-azaspiro[3.3]heptan-2-yl)methyl)-6-methoxypyridin-2-yl)-1-oxoisoindolin-2-yl)piperidine-2,6-dione] | 1.5 |
| COCC1CN(Cc2cc(-c3ccc4c(c3)CN(C3CCC(=O)NC3=O)C4=O)ncc2C(F)(F)F)C1 (stereo not shown) [Example 181, 3-(5-(4-((3-(methoxymethyl)azetidin-1-yl)methyl)-5-(trifluoromethyl)pyridin-2-yl)-1-oxoisoindolin-2-yl)piperidine-2,6-dione] | ≥ 10000 |
| O=C1CCC(N2Cc3cc(-c4nccc(CN5CCC(OC(F)(F)F)C5)c4F)ccc3C2=O)C(=O)N1 (stereo not shown) [Example 183, 3-(5-(3-fluoro-4-((3-(trifluoromethoxy)pyrrolidin-1-yl)methyl)pyridin-2-yl)-1-oxoisoindolin-2-yl)piperidine-2,6-dione] | ≥ 10000 |
| O=C1CCC(N2Cc3cc(-c4nccc(CN5CC[C@H](F)C5)c4F)ccc3C2=O)C(=O)N1 (stereo partly drawn) [Example 184, 3-(5-(3-fluoro-4-(((S)-3-fluoropyrrolidin-1-yl)methyl)pyridin-2-yl)-1-oxoisoindolin-2-yl)piperidine-2,6-dione] | 3160 |
| O=C1CCC(N2Cc3cc(-c4nccc(CN5Cc6cccc(F)c6C5)c4F)ccc3C2=O)C(=O)N1 (stereo not shown) [Example 186, 3-(5-(3-fluoro-4-((4-fluoroisoindolin-2-yl)methyl)pyridin-2-yl)-1-oxoisoindolin-2-yl)piperidine-2,6-dione] | ≥ 10000 |
| COCC1N(Cc2ccnc(-c3ccc4c(c3)CN(C3CCC(=O)NC3=O)C4=O)c2)CC12CCC2 (stereo not shown) [Example 189, 3-(5-(4-((1-(methoxymethyl)-2-azaspiro[3.3]heptan-2-yl)methyl)pyridin-2-yl)-1-oxoisoindolin-2-yl)piperidine-2,6-dione] | 6.4 |
| O=C1CCC(N2Cc3cc(-c4cc(CN5CCC5COc5ccc(F)cc5)ccn4)ccc3C2=O)C(=O)N1 (stereo not shown) [Example 192, 3-(5-(4-((2-((4-fluorophenoxy)methyl)azetidin-1-yl)methyl)pyridin-2-yl)-1-oxoisoindolin-2-yl) piperidine-2,6-dione] | 7.7 |
| CC(C)(C)OC(=O)NC[C@@H]1CCCN1Cc1ccnc(-c2ccc3c(c2)CN(C2CCC(=O)NC2=O)C3=O)c1 (stereo partly drawn) [Example 195, tert-butyl (((2S)-1-((2-(2-(2,6-dioxopiperidin-3-yl)-1-oxoisoindolin-5-yl)pyridin-4-yl)methyl)pyrrolidin-2-yl)methyl)carbamate] | 23.5 |
| CC(C)OCC1CCN1Cc1ccnc(-c2ccc3c(c2)CN(C2CCC(=O)NC2=O)C3=O)c1 (stereo not shown) [Example 196, 3-(5-(4-((2-(isopropoxymethyl)azetidin-1-yl)methyl)pyridin-2-yl)-1-oxoisoindolin-2-yl)piperidine-2,6-dione] | 2.6 |
| CC(=O)N1CCCCN1Cc1ccnc(-c2ccc3c(c2)CN(C2CCC(=O)NC2=O)C3=O)c1F (stereo not shown) [Example 199, 3-(5-(4-((2-acetyltetrahydropyridazin-1(2H)-yl)methyl)-3-fluoropyridin-2-yl)-1-oxoisoindolin-2-yl)piperidine-2,6-dione] | ≥ 10000 |
| CC(C)(C)OC(=O)N1CC2CCCN(Cc3ccnc(-c4ccc5c(c4)CN(C4CCC(=O)NC4=O)C5=O)c3F)C2C1 (stereo not shown) [Example 204, tert-butyl 1-((2-(2-(2,6-dioxopiperidin-3-yl)-1-oxoisoindolin-5-yl)-3-fluoropyridin-4-yl)methyl) octahydro-6H-pyrrolo[3,4-b]pyridine-6-carboxylate] | ≥ 10000 |
| CC1(C)C2CN(Cc3ccnc(-c4ccc5c(c4)CN(C4CCC(=O)NC4=O)C5=O)c3F)CC21 (stereo not shown) [Example 206, 3-(5-(4-((6,6-dimethyl-3-azabicyclo[3.1.0]hexan-3-yl)methyl)-3-fluoropyridin-2-yl)-1-oxoisoindolin-2-yl)piperidine-2,6-dione] | 11.1 |
| C[C@](O)(c1ccccc1)[C@H]1CCCN1Cc1ccnc(-c2ccc3c(c2)CN(C2CCC(=O)NC2=O)C3=O)c1F (stereo partly drawn) [Example 218, 3-(5-(3-fluoro-4-(((R)-2-((S)-1-hydroxy-1-phenylethyl)pyrrolidin-1-yl)methyl)pyridin-2-yl)-1-oxoisoindolin-2-yl)piperidine-2,6-dione] | 4130 |

Now from value to compound:

| DC50 [nM] | Structure (SMILES) |
| --- | --- |
| 0.2 | COc1cc(CN2CCC(C3CC3)C2)cc(-c2ccc3c(c2)CN(C2CCC(=O)NC2=O)C3=O)n1 (stereo not shown) [Example 175, 3-(5-(4-((3-cyclopropylpyrrolidin-1-yl)methyl)-6-methoxypyridin-2-yl)-1-oxoisoindolin-2-yl)piperidine-2,6-dione] |
| ≥ 10000 | O=C1CCC(N2Cc3cc(-c4cc(CN5CC6(CCC6)C5)c(C(F)(F)F)cn4)ccc3C2=O)C(=O)N1 (stereo not shown) [Example 180, 3-(5-(4-((2-azaspiro[3.3]heptan-2-yl)methyl)-5-(trifluoromethyl)pyridin-2-yl)-1-oxoisoindolin-2-yl)piperidine-2,6-dione] |
| ≥ 10000 | O=C1CCC(N2Cc3cc(-c4nccc(CN5CCC(O)(C(F)(F)F)C5)c4F)ccc3C2=O)C(=O)N1 (stereo not shown) [Example 185, 3-(5-(3-fluoro-4-((3-hydroxy-3-(trifluoromethyl)pyrrolidin-1-yl)methyl)pyridin-2-yl)-1-oxoisoindolin-2-yl)piperidine-2,6-dione] |
| ≥ 10000 | O=C1CCC(N2Cc3cc(-c4nccc(CN5Cc6ccc(Cl)cc6C5)c4F)ccc3C2=O)C(=O)N1 (stereo not shown) [Example 187, 3-(5-(4-((5-chloroisoindolin-2-yl)methyl)-3-fluoropyridin-2-yl)-1-oxoisoindolin-2-yl)piperidine-2,6-dione] |
| 28.7 | CC(C)(C)NC(=O)C1CCCN1Cc1ccnc(-c2ccc3c(c2)CN(C2CCC(=O)NC2=O)C3=O)c1 (stereo not shown) [Example 188, N-(tert-butyl)-1-((2-(2-(2,6-dioxopiperidin-3-yl)-1-oxoisoindolin-5-yl)pyridin-4-yl)methyl)pyrrolidine-2-carboxamide] |
| 49.7 | O=C1CCC(N2Cc3cc(-c4cc(CN5CCC[C@H]5C(=O)NC5CCCCC5)ccn4)ccc3C2=O)C(=O)N1 (stereo partly drawn) [Example 190, (2S)—N-cyclohexyl-1-((2-(2-(2,6-dioxopiperidin-3-yl)-1-oxoisoindolin-5-yl)pyridin-4-yl)methyl)pyrrolidine-2-carboxamide] |
| 53.6 | O=C1CCC(N2Cc3cc(-c4cc(CN5CC[C@@H]5COc5ccc(Cl)nc5)ccn4)ccc3C2=O)C(=O)N1 (stereo partly drawn) [Example 191, 3-(5-(4-(((R)-2-(((6-chloropyridin-3-yl)oxy)methyl)azetidin-1-yl)methyl)pyridin-2-yl)-1-oxoisoindolin-2-yl)piperidine-2,6-dione] |
| 51.9 | CC1(F)CCN(Cc2ccnc(-c3ccc4c(c3)CN(C3CCC(=O)NC3=O)C4=O)c2F)CC1 (stereo not shown) [Example 198, 3-(5-(3-fluoro-4-((4-fluoro-4-methylpiperidin-1-yl)methyl)pyridin-2-yl)-1-oxoisoindolin-2-yl)piperidine-2,6-dione] |
| ≥ 10000 | O=C1CCC(N2Cc3cc(-c4nccc(CN5CCCC(F)C5)c4F)ccc3C2=O)C(=O)N1 (stereo not shown) [Example 205, 3-(5-(3-fluoro-4-((3-fluoropiperidin-1-yl)methyl)pyridin-2-yl)-1-oxoisoindolin-2-yl)piperidine-2,6-dione] |
| ≥ 10000 | CC(C)(C)OC(=O)N1CCC2(CN(Cc3ccnc(-c4ccc5c(c4)CN(C4CCC(=O)NC4=O)C5=O)c3F)C2)C1 (stereo not shown) [Example 207, tert-butyl 2-((2-(2-(2,6-dioxopiperidin-3-yl)-1-oxoisoindolin-5-yl)-3-fluoropyridin-4-yl)methyl)-2,6-diazaspiro[3.4]octane-6-carboxylate] |
| ≥ 10000 | CC(C)(C)OC(=O)N1CCCC2(CN(Cc3ccnc(-c4ccc5c(c4)CN(C4CCC(=O)NC4=O)C5=O)c3F)C2)C1 (stereo not shown) [Example 208, tert-butyl 2-((2-(2-(2,6-dioxopiperidin-3-yl)-1-oxoisoindolin-5-yl)-3-fluoropyridin-4-yl)methyl)-2,6-diazaspiro[3.5]nonane-6-carboxylate] |
| ≥ 10000 | O=C1CCC(N2Cc3cc(-c4nccc(CN5CCC(O)(C(F)(F)F)CC5)c4F)ccc3C2=O)C(=O)N1 (stereo not shown) [Example 209, 3-(5-(3-fluoro-4-((4-hydroxy-4-(trifluoromethyl)piperidin-1-yl)methyl)pyridin-2-yl)-1-oxoisoindolin-2-yl)piperidine-2,6-dione] |
| ≥ 10000 | CC(C)(C)OC(=O)N1CCCC12CCN(Cc1ccnc(-c3ccc4c(c3)CN(C3CCC(=O)NC3=O)C4=O)c1F)C2 (stereo not shown) [Example 213, tert-butyl 7-((2-(2-(2,6-dioxopiperidin-3-yl)-1-oxoisoindolin-5-yl)-3-fluoropyridin-4-yl)methyl)-1,7-diazaspiro[4.4]nonane-1-carboxylate] |
| ≥ 10000 | CC(C)(C)OC(=O)N1CCC12CCCN(Cc1ccnc(-c3ccc4c(c3)CN(C3CCC(=O)NC3=O)C4=O)c1F)C2 (stereo not shown) [Example 216, tert-butyl 6-((2-(2-(2,6-dioxopiperidin-3-yl)-1-oxoisoindolin-5-yl)-3-fluoropyridin-4-yl)methyl)-1,6-diazaspiro[3.5]nonane-1-carboxylate] |
| 390 | C[C@@](O)(c1ccccc1)[C@H]1CCCN1Cc1ccnc(-c2ccc3c(c2)CN(C2CCC(=O)NC2=O)C3=O)c1F (stereo partly drawn) [Example 217, 3-(5-(3-fluoro-4-(((R)-2-((R)-1-hydroxy-1-phenylethyl)pyrrolidin-1-yl)methyl)pyridin-2-yl)-1-oxoisoindolin-2-yl)piperidine-2,6-dione] |

Source: patent US20250346574A1, “PYRIDINYL SUBSTITUTED OXOISOINDOLINE COMPOUNDS FOR THE TREATMENT OF CANCER” (Bristol-Myers Squibb Company, priority 2021, published 2025)
